Source: US7964738B2, “Pharmaceutical compositions and methods of use of lipophilic, silicon-substituted, cyclooxygenase-2 selective non-steroidal anti-inflammatory drugs and derivatives” (Silamed, Inc., priority 2004, dated 2011)

Legend:
[1] = target: Recombinant human COX-1 (Homo sapiens, UniProt P23219); test: Recombinant human COX-1 enzyme assay (PGE2 by EIA); assay type: biochemical
Method: Recombinant human enzymes were reconstituted in buffer (100 mM Tris, pH 7.8 at 37° C.) containing 0.5 mM phenol (964 μl total volume). The enzyme preparations were preincubated with vehicle (DMSO) or compounds of the invention in DMSO (1% DMSO in final assay) for 10 min at 25° C. for COX-1 and 5 min at 22° C. for COX-2. […] The reaction was incubated for 35 s (maximum level of COX-2 accumulation as determined from time course studies), and terminated by addition of 50-60 μl of SnCl2 (1 mg/ml) in 0.1 N HCl. PGE2 production in the presence or absence of the drug was determined by Enzyme Immunoassay (EIA) analysis as described.
(§1) EIA Determination of Prostaglandins
(§2) EIA reagents for prostaglandin determination were purchased from commercial sources. PGE2 levels in enzyme assays were measured against standards prepared in the same milieu using standard methods. The EIA was conducted in 96-well micotiter plates and optical density measured using a microplate reader by standard methods.

[2] = target: T1, Recombinant human COX-2 (Homo sapiens, UniProt P35354); test: Recombinant human COX-2 enzyme assay (PGE2 by EIA); assay type: biochemical; conditions: preincubation 5 min at 22° C., 2 μM arachidonic acid
T1 sequence (P35354 18-604): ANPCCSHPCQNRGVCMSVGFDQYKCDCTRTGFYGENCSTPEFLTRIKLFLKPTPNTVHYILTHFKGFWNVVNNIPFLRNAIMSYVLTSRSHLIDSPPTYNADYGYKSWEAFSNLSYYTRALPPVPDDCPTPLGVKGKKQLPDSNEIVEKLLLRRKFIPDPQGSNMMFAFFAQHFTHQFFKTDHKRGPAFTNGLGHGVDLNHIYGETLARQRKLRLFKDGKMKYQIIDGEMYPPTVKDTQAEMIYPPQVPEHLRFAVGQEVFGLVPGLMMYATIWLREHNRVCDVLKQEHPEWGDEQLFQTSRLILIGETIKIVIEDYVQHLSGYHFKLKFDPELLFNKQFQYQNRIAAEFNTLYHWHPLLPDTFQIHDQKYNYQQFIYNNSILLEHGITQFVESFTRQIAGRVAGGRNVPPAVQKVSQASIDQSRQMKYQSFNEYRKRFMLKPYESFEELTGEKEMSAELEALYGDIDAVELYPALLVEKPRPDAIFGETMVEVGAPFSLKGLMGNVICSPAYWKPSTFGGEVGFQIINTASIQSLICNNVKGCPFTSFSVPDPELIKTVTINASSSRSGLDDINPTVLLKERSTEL
Method: Recombinant human enzymes were reconstituted in buffer (100 mM Tris, pH 7.8 at 37° C.) containing 0.5 mM phenol (964 μl total volume). The enzyme preparations were preincubated with vehicle (DMSO) or compounds of the invention in DMSO (1% DMSO in final assay) for 10 min at 25° C. for COX-1 and 5 min at 22° C. for COX-2. Excess hematin was added 1 min prior to initiation of reaction (1.25 μM final hematin) with 4 μM (COX-1) and 2 μM (COX-2) arachidonic acid (sodium salt). The final assay volume was 1.0 ml (100 mM Tris (pH 7.8), 0.5 mM phenol, 1.25 μM hematin and arachidonic acid at 37° C.). The reaction was incubated for 35 s (maximum level of COX-2 accumulation as determined from time course studies), and terminated by addition of 50-60 μl of SnCl2 (1 mg/ml) in 0.1 N HCl. PGE2 production in the presence or absence of the drug was determined by Enzyme Immunoassay (EIA) analysis as described.
as §1, §2

[3] = system: human MiaPaCa-2 pancreatic cancer cells; test: In vitro cellular proliferation assay (SRB); assay type: cell-based; conditions: MIA PaCa-2, 72 h, 3 days incubation, starting concentration 100 μM, read-out: IC50 (growth inhibition, MiaPaCa-2)
Method: In vitro cell proliferation assays were performed using a 96-well plate based SRB (Sulforhodamine-B) assay. Briefly, human MiaPaCa-2 pancreatic cancer cells were plated in 100 μl medium on day 0 in 96-well microtiter plates (Falcon #3072). On day 1, 10 μl of serial dilutions of each compound (Nine 1:2 dilutions with a starting concentration of 100 μM) were added in triplicates to the plates. As a vehicle control, serial dilutions of DMSO with a starting concentration of 0.5% were also included. After incubation for 3 days at 37° C. in a humidified incubator, cells were fixed in situ with 50 μL of cold trichloroacetic acid (TCA, final concentration at 10% w/v) for 60 minutes. Cells were then washed 5 times with H2O and air-dried. Next, cells were stained with 20 μL of 0.2% SRB in 1% acetic acid and incubated at room temperature for 30 minutes and unbound SRB was removed by washing 5 times with 1% acetic acid and air-dried. Finally, bound SRB stain was solubilized in 50 μL of 50 μM Tris buffer before taking an optical density measurement at 570 nm using a BioTek Synergy™ HT Multiple Detection microplate reader. The growth inhibition data were expressed as the percentage of cell survival calculated from the background corrected absorbance. The surviving fraction of cells was determined by dividing the mean absorbance values of the test agent-treated samples by the mean absorbance values of untreated control.

Chain of Recombinant human COX-1 (P23219 24-599): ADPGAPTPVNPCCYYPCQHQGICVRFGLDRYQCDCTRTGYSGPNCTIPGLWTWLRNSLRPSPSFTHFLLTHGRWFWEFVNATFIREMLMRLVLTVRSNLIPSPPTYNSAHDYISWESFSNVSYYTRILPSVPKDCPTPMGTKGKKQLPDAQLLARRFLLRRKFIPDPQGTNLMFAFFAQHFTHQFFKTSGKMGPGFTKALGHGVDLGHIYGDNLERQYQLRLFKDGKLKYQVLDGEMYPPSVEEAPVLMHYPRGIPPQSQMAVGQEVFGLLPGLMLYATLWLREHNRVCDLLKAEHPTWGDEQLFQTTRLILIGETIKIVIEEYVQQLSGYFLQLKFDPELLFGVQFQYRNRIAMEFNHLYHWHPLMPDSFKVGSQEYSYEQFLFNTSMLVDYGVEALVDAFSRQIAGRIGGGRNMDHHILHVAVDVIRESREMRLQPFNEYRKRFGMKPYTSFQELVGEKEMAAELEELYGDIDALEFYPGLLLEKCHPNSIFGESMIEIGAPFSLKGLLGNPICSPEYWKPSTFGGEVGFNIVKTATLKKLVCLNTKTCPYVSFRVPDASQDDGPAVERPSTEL

Row | Compound | IC50 [1] | IC50 [2] | IC50 [3] | melting point
1 | COc1ccc2c(c1)c(CC(=O)NCCC[Si](C)(C)C)c(C)n2C(=O)c1ccc(Cl)cc1 [Example 1, 2-(1-(4-chlorobenzoyl)-5-methoxy-2-methyl-1H-indol-3-yl)-N-(3-(trimethylsilyl)propyl)acetamide] | > 10 µM | 0.21 µM | 6.6 µM | 97 to 101 °C
2 | COc1ccc2c(c1)c(CC(=O)NC[Si](C)(C)C)c(C)n2C(=O)c1ccc(Cl)cc1 [Example 2, 2-(1-(4-chlorobenzoyl)-5-methoxy-2-methyl-1H-indol-3-yl)-N-((trimethylsilyl)methyl)acetamide] | 2.7 µM | 0.39 µM | 14.3 µM | 163 to 165 °C
3 | COc1ccc2c(c1)c(CC(=O)NC[Si](C)(C)c1ccccc1)c(C)n2C(=O)c1ccc(Cl)cc1 [Example 3, 2-(1-(4-chlorobenzoyl)-5-methoxy-2-methyl-1H-indol-3-yl)-N-((dimethyl(phenyl)silyl)methyl)acetamide] | > 10 µM | 0.31 µM | 4.8 µM | 121 to 124 °C
4 | CCO[Si](CCCNC(=O)Cc1c(C)n(C(=O)c2ccc(Cl)cc2)c2ccc(OC)cc12)(OCC)OCC [Example 4, 2-(1-(4-chlorobenzoyl)-5-methoxy-2-methyl-1H-indol-3-yl)-N-(3-(triethoxysilyl)propyl)acetamide] | 5 µM | 0.57 µM | 20 µM | 71 to 73 °C (dec.)
5 | COc1ccc2c(c1)c(CC(=O)O)c(C)n2C(=O)c1ccc(Cl)cc1 [Indomethacin, reference compound] | – | – | > 100 µM | –
